# Tested on: Mus musculus
# Assay: Analgesic activity against acetic acid induced writhing test in mouse after peroral administration
# Type: functional
# Conditions: Mus musculus, po; read-out: ED50
row,Structure (SMILES),ED50
1,O=C(Nc1nccs1)c1c(C(Cl)Cl)nc2cc(Cl)ccc2c1O,> 100 mg/kg
2,O=C(Nc1nccs1)c1cnc2cc(C(F)(F)F)ccc2c1O,100 mg/kg
3,O=C(Nc1nccs1)c1c(C(F)(F)F)nc2cc(C(F)(F)F)ccc2c1O,5 mg/kg
4,O=C(Nc1ncco1)c1cnc2c(C(F)(F)F)cccc2c1O,> 100 mg/kg
5,O=C(Nc1nccs1)c1c(C(F)(F)F)nc2c(SC(F)(F)F)cccc2c1O,4 mg/kg
6,O=C(Nc1ncco1)c1c(C(F)(F)F)nc2c(C(F)(F)F)cccc2c1O,> 100 mg/kg
7,O=C(Nc1nccs1)c1c(C(F)(F)F)nc2c(Cl)ccc(C(F)(F)F)c2c1O,> 50 mg/kg
8,CCCc1nc2c(C(F)(F)F)cccc2c(O)c1C(=O)Nc1nccs1,15 mg/kg
9,O=C(Nc1nccs1)c1c(C(F)(F)F)nc2ccc(C(F)(F)F)cc2c1O,100 mg/kg
10,O=C(NC1CCCCC1)c1cnc2c(C(F)(F)F)cccc2c1O,> 50 mg/kg
11,O=C(Nc1nccs1)c1cnc2ccccc2c1O,> 10 mg/kg
12,Cc1nc2c(C(F)(F)F)cccc2c(O)c1C(=O)Nc1nccs1,4 mg/kg
13,O=C(Nc1nccs1)c1c(C(Cl)Cl)nc2ccccc2c1O,> 25 mg/kg
14,COc1ccc2nc(C(F)(F)F)c(C(=O)Nc3nccs3)c(O)c2c1,30 mg/kg
15,O=C(Nc1nccs1)c1c(C(F)(F)C(F)(F)F)nc2c(C(F)(F)F)cccc2c1O,20 mg/kg
16,O=C(NC1=NCCS1)c1cnc2c(C(F)(F)F)cccc2c1O,15 mg/kg
17,O=C(Nc1nccs1)c1c(C(Cl)Cl)nc2ccc(Cl)cc2c1O,25 mg/kg
18,O=C(Nc1ncc[nH]1)c1cnc2c(C(F)(F)F)cccc2c1O,18 mg/kg
19,O=C(Nc1nccs1)c1c(C(F)(F)F)nc2ccccc2c1O,8 mg/kg
20,CCc1nc2c(C(F)(F)F)cccc2c(O)c1C(=O)Nc1nccs1,3 mg/kg
21,Cn1nccc1NC(=O)c1cnc2c(C(F)(F)F)cccc2c1O,50 mg/kg
22,O=C(Nc1nccs1)c1cnc2ccc(Cl)cc2c1O,50 mg/kg
23,O=C(Nc1nccs1)c1c(C(F)F)nc2c(C(F)(F)F)cccc2c1O,5 mg/kg

row,Structure (SMILES),ED50
1,O=C(Nc1ccccn1)c1c(C(Cl)Cl)nc2c(C(F)(F)F)cccc2c1O,20 mg/kg
2,CCc1nc2c(C(F)(F)F)cccc2c(O)c1C(=O)Nc1ncco1,15 mg/kg
3,O=C(Nc1nccs1)c1cnc2c(OC(F)(F)F)cccc2c1O,> 50 mg/kg
4,O=C(Nc1ncccn1)c1cnc2c(C(F)(F)F)cccc2c1O,50 mg/kg
5,O=C(Nn1ccnn1)c1cnc2c(C(F)(F)F)cccc2c1O,> 50 mg/kg
6,CC(C)(C)c1nc2c(C(F)(F)F)cccc2c(O)c1C(=O)Nc1nccs1,> 100 mg/kg
7,O=C(Nc1nccs1)c1cnc2ccc(C(F)(F)F)cc2c1O,40 mg/kg
8,Cc1cc(NC(=O)c2c(C(F)(F)F)nc3c(C(F)(F)F)cccc3c2O)no1,> 50 mg/kg
9,O=C(Nc1nccs1)c1cnc2c(SC(F)(F)F)cccc2c1O,> 50 mg/kg
10,CCc1nc2c(C(F)(F)F)cccc2c(O)c1C(=O)Nc1cc(C)on1,> 50 mg/kg
11,CC(C)c1ccc2ncc(C(=O)Nc3nccs3)c(O)c2c1,25 mg/kg
12,O=C(Nc1nccs1)c1c(C(F)(F)F)nc2c([S+]([O-])C(F)(F)F)cccc2c1O (stereo unspecified),20 mg/kg
13,O=C(Nc1nccs1)c1c(C(F)(F)F)nc2cccc(C(F)(F)F)c2c1O,20 mg/kg
14,CC(C)Cc1nc2c(C(F)(F)F)cccc2c(O)c1C(=O)Nc1nccs1,30 mg/kg
15,CCc1nc2c(C(F)(F)F)cccc2c(O)c1C(=O)Nc1nccn1C,50 mg/kg
16,O=C(Nc1nccs1)c1c(C(F)(F)F)nc2c(Cl)cccc2c1O,2 mg/kg
17,O=C(Nc1ccccn1)c1c(C(F)(F)F)nc2c(C(F)(F)F)cccc2c1O,> 20 mg/kg
18,COc1cccc2c(O)c(C(=O)Nc3nccs3)cnc12,> 50 mg/kg
19,CCc1nc2c(C(F)(F)F)cccc2c(O)c1C(=O)Nc1ccccn1,18 mg/kg
20,Cc1nc2c(C(F)(F)F)cccc2c(O)c1C(=O)Nc1ccccn1,5 mg/kg
21,Cn1ccnc1NC(=O)c1cnc2c(C(F)(F)F)cccc2c1O,16 mg/kg
22,O=C(Nc1ccccc1)c1cnc2c(C(F)(F)F)cccc2c1O,> 50 mg/kg

# Same assay, conditions: read-out: ED50
row,Structure (SMILES),ED50
1,CC(Cl)c1nc2c(C(F)(F)F)cccc2c(O)c1C(=O)Nc1nccs1 (stereo unspecified),25 mg/kg
